# Experimental data taken from patent US10123996B2, “Macrocyclic lactone compounds and methods for their use” (Elixir Medical Corporation, priority 2006, dated 2018).
# Experiments:
# Format in all cases: cell-based
# [1] = test system: MCP-1 released by activated macrophages; assay: cytokine inhibition in LPS-activated macrophages, ELISA: MCP-1; details: 10 nM
# Protocol: (§1) In cell culture studies, macrophages were activated to secrete cytokines such as 11-6, MMP-9, MCP-1 and IL-10 by treating the cells to E Coli lippopolysaccharide (LPS). Inhibition of these cytokines upon treatment of the activated macrophages with Compound AR and rapamycin with 10 nM concentration was tested using ELISA assay. The inhibition of pro-inflammatory and cell proliferation and migration inducing cytokines upon exposure to the macrocyclic lactone is presented in FIG. 12A. The inhibition of anti-inflammatory cytokine IL-10 upon exposure to macrocyclic lactone Compound AR and Sirolimus are presented in FIG. 12B.
# [2] = test system: human smooth muscle cells; assay: in vitro human smooth muscle cell culture testing, incorporated thymidine (proliferation); details: for % Proliferation After One Hr Exposure: 1 hr exposure; for % Proliferation After Three Hr Exposure: 3 hr exposure; for % Proliferation After Eight Hr Exposure: 8 hr exposure; for IC50: Homo sapiens
# Protocol: The amounts of incorporated thymidine for samples of Compound AR of varying concentrations (0.005, 0.01, 0.05, 0.1, 0.5, and 1 μM) and of rapamycin of varying concentrations (0.0005, 0.001, 0.01, and 0.1 μM) were measured after exposure for different times of 1, 3 and 8 hours. The IC50 for Compound AR and rapamycin were approximately 0.05 and 0.01 μM, respectively, after smooth muscle cells were exposed to Compound AR and rapamycin for the shorter periods of 1 and 3 hours (as shown in Table 1 and FIG. 8). The IC50 of Compound AR and rapamycin was approximately 0.005 and 0.001 μM, respectively, after smooth muscle cells were exposure to Compound AR and rapamycin for 8 hours. The IC50 of Compound AR was approximately five times higher than that of rapamycin.
# The amounts of incorporated thymidine for samples of 17, 18-29, 30-bis-epoxide macrocyclic lactone of varying concentrations (0.005, 0.01, 0.05, 0.1, 0.5, and 1 μM) and of Compound AR of varying concentrations (0.0005, 0.001, 0.01, and 0.1 μM) were measured after exposure for 8 hours. The IC50 of 17, 18-29, 30-bis-epoxide macrocyclic lactone and Compound AR was approximately 0.1 and 0.005 μM, respectively, after smooth muscle cells were exposed to 17, 18-29, 30-bis-epoxide macrocyclic lactone and Compound AR for 8 hours (FIG. 13). The IC50 of 17, 18-29, 30-bis-epoxide macrocyclic lactone was approximately 20 times higher than that of Compound AR.
# [3] = test system: MMP-9 released by activated macrophages; assay: cytokine inhibition in LPS-activated macrophages, ELISA: MMP-9; details: 10 nM
# Protocol: as §1
# [4] = test system: IL-6 released by activated macrophages; assay: cytokine inhibition in LPS-activated macrophages, ELISA: IL-6; details: 10 nM
# Protocol: as §1
# [5] = test system: IL-10 released by activated macrophages; assay: cytokine inhibition in LPS-activated macrophages, ELISA: IL-10; details: 10 nM
# Protocol: as §1
smiles,measurement,setting,value
"CO[C@@H]1C[C@H](C[C@@H](C)[C@@H]2CC(=O)[C@H](C)/C=C(\C)[C@@H](O)[C@@H](OC)C(=O)[C@H](C)C[C@H](C)/C=C/C=C/C=C(\C)C(O)C[C@@H]3CC[C@@H](C)C(O)(O3)C(=O)C(=O)N3CCCC[C@H]3C(=O)O2)CC[C@H]1O (stereo partly drawn) [Compound AR, 16-O-Demethyl Macrocyclic Lactone]",production of MCP-1,[1],significantly reduced the production
same,% Proliferation After One Hr Exposure,[2]; 0.005 micromolar,84%
same,% Proliferation After Three Hr Exposure,[2]; 0.005 micromolar,69%
same,% Proliferation After Eight Hr Exposure,[2]; 0.005 micromolar,52%
same,% Proliferation After One Hr Exposure,[2]; 0.01 micromolar,66%
same,% Proliferation After Three Hr Exposure,[2]; 0.01 micromolar,56%
same,% Proliferation After Eight Hr Exposure,[2]; 0.01 micromolar,38%
same,% Proliferation After One Hr Exposure,[2]; 0.05 micromolar,54%
same,% Proliferation After Three Hr Exposure,[2]; 0.05 micromolar,50%
same,% Proliferation After Eight Hr Exposure,[2]; 0.05 micromolar,40%
same,% Proliferation After One Hr Exposure,[2]; 0.1 micromolar,55%
same,% Proliferation After Three Hr Exposure,[2]; 0.1 micromolar,52%
same,% Proliferation After Eight Hr Exposure,[2]; 0.1 micromolar,36%
same,% Proliferation After One Hr Exposure,[2]; 0.5 micromolar,57%
same,% Proliferation After Three Hr Exposure,[2]; 0.5 micromolar,48%
same,% Proliferation After Eight Hr Exposure,[2]; 0.5 micromolar,35%
same,IC50,[2]; smooth muscle cells exposed for 8 hours,~5 nM
same,IC50,[2]; smooth muscle cells exposed for the shorter periods of 1 and 3 hours,~50 nM
same,production of MMP-9,[3],significantly reduced the production
same,inhibition of release of IL-6,[4],did not show and significant inhibition
same,production of anti-inflammatory cytokine IL-10,[5],inhibit the production
